Like-named read-outs stand apart in the source and are kept apart here.
System: 134 cancer cell lines
Assay: Cell viability assay (ATPlite, 72 hours), IC50 on cancer cell line panel
[1] = Homo sapiens, A204, read-out: IC50 in cell proliferation assay
[2] = Homo sapiens, Kasumi 1, read-out: IC50 in cell proliferation assay
[3] = Homo sapiens, MDA-MB-453, read-out: IC50 in cell proliferation assay
[4] = Homo sapiens, MOLM-13, read-out: IC50 in cell proliferation assay
[5] = Homo sapiens, MV4-11, read-out: IC50 in cell proliferation assay
[6] = Homo sapiens, SK-N-SH, read-out: IC50 in cell proliferation assay

Work on `C=CC(=O)N1CCC[C@@H](n2nc(-c3ccc(Oc4ccccc4)cc3)c3c(N)ncnc32)C1` [ibrutinib] yielded an IC50 (Homo sapiens, 769-P, read-out: IC50 in cell proliferation assay) of 624 nM, an IC50 (Homo sapiens, 786-0, read-out: IC50 in cell proliferation assay) of 447 nM and an IC50 [1] of 29200 nM. It also gave an IC50 (Homo sapiens, A498, read-out: IC50 in cell proliferation assay) of 10100 nM, an IC50 (Homo sapiens, A-427, read-out: IC50 in cell proliferation assay) of 7610 nM and an IC50 (Homo sapiens, ACHN, read-out: IC50 in cell proliferation assay) of 675 nM. The IC50 (Homo sapiens, AN3-CA, read-out: IC50 in cell proliferation assay) was 12700 nM, the IC50 (Homo sapiens, AU565, read-out: IC50 in cell proliferation assay) was 42 nM and the IC50 (Homo sapiens, BT-474, read-out: IC50 in cell proliferation assay) was 28 nM. It also gave an IC50 (Homo sapiens, BT-549, read-out: IC50 in cell proliferation assay) of 17500 nM, an IC50 (Homo sapiens, BXPC-3, read-out: IC50 in cell proliferation assay) of 1410 nM and an IC50 (Homo sapiens, C-33-A, read-out: IC50 in cell proliferation assay) of 46 nM. For the same compound, the IC50 (Homo sapiens, CAL-27, read-out: IC50 in cell proliferation assay) was 374 nM, the IC50 (Homo sapiens, CCRF-CEM, read-out: IC50 in cell proliferation assay) was 8440 nM and the IC50 (Homo sapiens, DU-145, read-out: IC50 in cell proliferation assay) was 148 nM. It also gave an IC50 (Homo sapiens, DU-4475, read-out: IC50 in cell proliferation assay) of 20100 nM, an IC50 (Homo sapiens, Daoy, read-out: IC50 in cell proliferation assay) of 23100 nM and an IC50 (Homo sapiens, DoTc2-4510, read-out: IC50 in cell proliferation assay) of 209 nM. It also gave an IC50 (Homo sapiens, EOL1, read-out: IC50 in cell proliferation assay) of 347 nM, an IC50 (Homo sapiens, FaDu, read-out: IC50 in cell proliferation assay) of 95 nM and an IC50 (Homo sapiens, HCC827, read-out: IC50 in cell proliferation assay) of 236 nM. It also gave an IC50 (Homo sapiens, HCT-116, read-out: IC50 in cell proliferation assay) of 26400 nM, an IC50 (Homo sapiens, HEC-1B, read-out: IC50 in cell proliferation assay) of 294 nM and an IC50 (Homo sapiens, HL-60, read-out: IC50 in cell proliferation assay) of 29700 nM. It also gave an IC50 (Homo sapiens, HT, read-out: IC50 in cell proliferation assay) of 902 nM, an IC50 (Homo sapiens, Hs-578T, read-out: IC50 in cell proliferation assay) of 15100 nM and an IC50 (Homo sapiens, HuTu80, read-out: IC50 in cell proliferation assay) of 3660 nM. For the same compound, the IC50 (Homo sapiens, J82, read-out: IC50 in cell proliferation assay) was 25500 nM, the IC50 (Homo sapiens, Jurkat E6.1, read-out: IC50 in cell proliferation assay) was 10800 nM and the IC50 (Homo sapiens, K562, read-out: IC50 in cell proliferation assay) was 7320 nM. The IC50 (Homo sapiens, KATO III, read-out: IC50 in cell proliferation assay) was 1040 nM, the IC50 (Homo sapiens, KG-1, read-out: IC50 in cell proliferation assay) was 1360 nM and the IC50 (Homo sapiens, KLE, read-out: IC50 in cell proliferation assay) was 75 nM. The IC50 (Homo sapiens, KMS-11, read-out: IC50 in cell proliferation assay) was 27900 nM, the IC50 (Homo sapiens, KU812, read-out: IC50 in cell proliferation assay) was 2810 nM and the IC50 [2] was 7920 nM. The IC50 (Homo sapiens, LC-2-ad, read-out: IC50 in cell proliferation assay) was 1830 nM, the IC50 (Homo sapiens, LS174T, read-out: IC50 in cell proliferation assay) was 11600 nM and the IC50 (Homo sapiens, LS-411N, read-out: IC50 in cell proliferation assay) was 23000 nM. The IC50 [3] was 411 nM, the IC50 (Homo sapiens, MDA-MB-468, read-out: IC50 in cell proliferation assay) was 1040 nM and the IC50 [4] was 426 nM. The IC50 (Homo sapiens, MOLT-4, read-out: IC50 in cell proliferation assay) was 1880 nM, the IC50 [5] was 1010 nM and the IC50 (Homo sapiens, MeWo, read-out: IC50 in cell proliferation assay) was 29100 nM. For the same compound, the IC50 (Homo sapiens, NCCIT, read-out: IC50 in cell proliferation assay) was 5100 nM, the IC50 (Homo sapiens, NCI-H82, read-out: IC50 in cell proliferation assay) was 18400 nM and the IC50 (Homo sapiens, NCI-H661, read-out: IC50 in cell proliferation assay) was 123 nM. The IC50 (Homo sapiens, NCI-H716, read-out: IC50 in cell proliferation assay) was 1300 nM, the IC50 (Homo sapiens, NCI-H1650, read-out: IC50 in cell proliferation assay) was 110 nM and the IC50 (Homo sapiens, NCI-H1975, read-out: IC50 in cell proliferation assay) was 576 nM. For the same compound, the IC50 (Homo sapiens, NCI-H2228, read-out: IC50 in cell proliferation assay) was 29900 nM, the IC50 (Homo sapiens, OVCAR-3, read-out: IC50 in cell proliferation assay) was 200 nM and the IC50 (Homo sapiens, PFSK-1, read-out: IC50 in cell proliferation assay) was 25600 nM. It also gave an IC50 (Homo sapiens, RL95-2, read-out: IC50 in cell proliferation assay) of 32 nM, an IC50 (Homo sapiens, RPMI-7951, read-out: IC50 in cell proliferation assay) of 26900 nM and an IC50 (Homo sapiens, Rec1, read-out: IC50 in cell proliferation assay) of 0.511 nM. It also gave an IC50 (Homo sapiens, SK-BR-3, read-out: IC50 in cell proliferation assay) of 11 nM, an IC50 (Homo sapiens, SK-N-MC, read-out: IC50 in cell proliferation assay) of 1520 nM and an IC50 [6] of 26300 nM. It also gave an IC50 (Homo sapiens, SNU-5, read-out: IC50 in cell proliferation assay) of 17600 nM, an IC50 (Homo sapiens, SNU-C2B, read-out: IC50 in cell proliferation assay) of 300 nM and an IC50 (Homo sapiens, SU-DHL-6, read-out: IC50 in cell proliferation assay) of 12 nM. The IC50 (Homo sapiens, SUP-T1, read-out: IC50 in cell proliferation assay) was 1310 nM, the IC50 (Homo sapiens, SW48, read-out: IC50 in cell proliferation assay) was 21 nM and the IC50 (Homo sapiens, SW780, read-out: IC50 in cell proliferation assay) was 18700 nM. The IC50 (Homo sapiens, T98G, read-out: IC50 in cell proliferation assay) was 20600 nM, the IC50 (Homo sapiens, TCC-SUP, read-out: IC50 in cell proliferation assay) was 18100 nM and the IC50 (Homo sapiens, U2OS, read-out: IC50 in cell proliferation assay) was 10100 nM. It also gave an IC50 (Homo sapiens, U-118-MG, read-out: IC50 in cell proliferation assay) of 23300 nM, an IC50 (L-82, read-out: IC50 in cell proliferation assay) of 17700 nM and an IC50 (Rh30, read-out: IC50 in cell proliferation assay) of 25700 nM.
`CO[C@@H]1[C@H](N(C)C(=O)c2ccccc2)C[C@H]2O[C@]1(C)n1c3ccccc3c3c4c(c5c6ccccc6n2c5c31)C(=O)NC4` [midostaurin] was tested, and the IC50 [1] was 334 nM, the IC50 [2] was 320 nM and the IC50 [3] was 7640 nM. The IC50 [4] was 14 nM, the IC50 [5] was 15 nM and the IC50 [6] was 326 nM.

Reference: publication PMC9516332 (Frontiers in Oncology, 2022)
